The test system of one series is HeLa. The series can be described thus: Antineoplastic activity against human HeLa cells measured after 36 hrs by MTT assay. It counts as functional, cell-based. For orientation: Tetrazolium assays rely on reduction of a dye to a coloured formazan, in cell work by metabolically active cells.
For a further series, the system named is HepG2. The series can be described thus: Antineoplastic activity against human HepG2 cells measured after 36 hrs by MTT assay. It counts as functional, cell-based. Conditions: HepG2, 36 h.
Series [1] concerns MCF7. As to the kind of experiment: Antineoplastic activity against human MCF7 cells measured after 36 hrs by MTT assay. The format is functional, cell-based. Conditions: MCF7, 36 h.
The test system of series [2] is A549. As to the kind of experiment: Antineoplastic activity against human A549 cells measured after 36 hrs by MTT assay. The format is functional, cell-based. Conditions: A549, 36 h.
Series [3] deals with HUVEC. The series can be described thus: Cytotoxicity against HUVEC measured after 36 hrs by MTT assay. It counts as cell-based. The conditions noted are these: Homo sapiens.
The test system of series [4] is Salmon testes DNA. The series can be described thus: Binding affinity to Salmon sperm DNA assessed as hypochromic shift at 5 x 10^-5M by absorption spectra analysis. The conditions noted are these: Salmonidae. The format is nucleic-acid assay.
The test system of series [5] is A549. As to the kind of experiment: Induction of apoptosis in human A549 cells assessed as decrease in viable cells after 24 hrs by Annexin V-FITC/propidium iodide staining based flow cytometry. The format is functional, cell-based. (A flow cytometer gives signals particle by particle.)
Series [6] concerns A549. The series can be described thus: Induction of apoptosis in human A549 cells assessed as increase in apoptotic cells after 24 hrs by Annexin V-FITC/propidium iodide staining based flow cytometry. The format is functional, cell-based.
The nature of series [7]: Drug internalization in human HeLa cells at 100 nM incubated for 2 hrs at 4 degC by confocal fluorescence imaging analysis. Conditions: 0.1 µM. It counts as ADME, cell-based.
The test system of series [8] is MCF7. As to the kind of experiment: Induction of apoptosis in human MCF7 cells assessed as early apoptotic cells at 1 ug/ml after 24 hrs by Annexin V-FITC/propidium iodide staining based flow cytometry (reference value: 2.83%). The format is functional.
The test system of series [9] is MCF7. As to the kind of experiment: Induction of apoptosis in human MCF7 cells assessed as early apoptotic cells at 5 ug/ml after 24 hrs by Annexin V-FITC/propidium iodide staining based flow cytometry (reference value: 2.83%). The format is functional.
In series [10] the test system is MCF7. The series can be described thus: Induction of apoptosis in human MCF7 cells assessed as early apoptotic cells at 0.1 ug/ml after 24 hrs by Annexin V-FITC/propidium iodide staining based flow cytometry (reference value: 2.83%). The format is functional.
Series [11] has as its system A549. The series can be described thus: Induction of apoptosis in human A549 cells assessed as early apoptotic cells at 1 ug/ml after 24 hrs by Annexin V-FITC/propidium iodide staining based flow cytometry (reference value: 6.09%). The format is functional.
Series [12] relates to A549. As to the kind of experiment: Induction of apoptosis in human A549 cells assessed as early apoptotic cells at 2 ug/ml after 24 hrs by Annexin V-FITC/propidium iodide staining based flow cytometry (reference value: 6.09%). It counts as functional.
In series [13] the test system is A549. The series can be described thus: Induction of apoptosis in human A549 cells assessed as early apoptotic cells at 5 ug/ml after 24 hrs by Annexin V-FITC/propidium iodide staining based flow cytometry (reference value: 6.09%). The format is functional.
The subject of series [14] is HUVEC. The series can be described thus: Cytotoxicity against HUVEC. It counts as cell-based. The conditions noted are these: Homo sapiens.
In series [15] the test system is MCF7. The series can be described thus: Induction of apoptosis in human MCF7 cells assessed as decrease in viable cells after 24 hrs by Annexin V-FITC/propidium iodide staining based flow cytometry. The format is functional, cell-based.
For series [16], the system named is MCF7. The series can be described thus: Induction of apoptosis in human MCF7 cells assessed as increase in apoptotic cells after 24 hrs by Annexin V-FITC/propidium iodide staining based flow cytometry. The format is functional, cell-based.
In series [17] the test system is Salmon testes DNA. The series can be described thus: Binding affinity to Salmon sperm DNA assessed as DNA intercalation at 1.5 x 10^-5M by ethidium bromide staining based fluorescence assay. The conditions noted are these: Salmonidae. It counts as nucleic-acid assay.

As a reminder, the IC50 is the midpoint of a concentration-inhibition curve. Low readings indicate inhibition by little substance, high ones a need for much substance.

Activity calls are given as the source filed them. The calls are words filed in the database; no cut-off is given here.

On to `CC(C)c1ccc2c(c1)CC[C@H]1[C@](C)(CNC(=O)c3ncn(C)c3C(=O)NC[C@]3(C)CCC[C@]4(C)c5ccc(C(C)C)cc5CC[C@@H]34)CCC[C@]21C`, for which the IC50 worked out at 48.5 µM in the series on HeLa; 50.5 µM in the series with HepG2; 9.85 µM in the series with MCF7 [1]; 17 µM with A549 [2]; 44.9 µM with HUVEC [3]. The result with Salmon testes DNA [4] was Active.
On to `COc1cccc2c1C(=O)c1c(O)c3c(c(O)c1C2=O)C[C@@](O)(C(=O)CO)C[C@@H]3O[C@H]1C[C@H](N)[C@H](O)[C@H](C)O1` [DOXORUBICIN], for which the IC50 came out at 3.55 µM with HeLa, 14 µM with MCF7 [1], 3.35 µM with A549 [2] and 4.4 µM with HUVEC [3].
`CC(C)c1ccc2c(c1)CC[C@H]1[C@](C)(CN)CCC[C@]21C.O=C(O)c1nc[nH]c1C(=O)O` [listing 1 of 2 here]: the Activity entry in the series on A549 [5] and with A549 [6] was “Dose-dependent effect” each time.
As for `CC(C)c1ccc2c(c1)CC[C@H]1[C@](C)(CN)CCC[C@]21C`, the Drug uptake entry in series [7] is “Not Active”.
`CC(C)c1ccc2c(c1)CC[C@H]1[C@](C)(CN)CCC[C@]21C.CC(C)c1ccc2c(c1)CC[C@H]1[C@](C)(CN)CCC[C@]21C.O=C(O)c1nc[nH]c1C(=O)O` [listing 1 of 2 here]: the IC50 stood at 2.88 µM in the series with HeLa; 2.91 µM with HepG2; 0.75 µM in the series with MCF7 [1]; 4.37 µM in the series with A549 [2]; 3.98 µM in the series with HUVEC [3]. Further, the Activity in the series with MCF7 [8] is 39.49%; in the series on MCF7 [9], 54.21%; with MCF7 [10], 25.4%.
With `CC(C)c1ccc2c(c1)CC[C@H]1[C@](C)(CNC(=O)c3ncn(C)c3C(=O)O)CCC[C@]21C`, the half-maximal inhibitory concentration (IC50) in the series with HeLa stood at 16.8 µM; in the series with HepG2, 6.52 µM; with MCF7 [1], 12.1 µM; in the series on A549 [2] it was 12.3 µM; in the series with HUVEC [3], 33 µM. In the series on Salmon testes DNA [4], the outcome was Active.
For the compound `CC(C)c1ccc2c(c1)CC[C@H]1[C@](C)(CN)CCC[C@]21C.O=C(O)c1nc[nH]c1C(=O)O` [listing 2 of 2 here], the half-maximal inhibitory concentration (IC50) in the series with HeLa was 18.7 µM; in the series on HepG2, 4.62 µM; with MCF7 [1] it was 6.47 µM; with A549 [2], 1.85 µM; with HUVEC [3] it was 1.21 µM. The Activity was 12.47% in the series on A549 [11], 30.64% in the series with A549 [12] and 76.86% in the series with A549 [13].
In the series on HUVEC [14], `O=c1[nH]cc(F)c(=O)[nH]1` [FLUOROURACIL] came in with an IC50 of 11.7 µM.
On to `CC(C)c1ccc2c(c1)CC[C@H]1[C@](C)(CN)CCC[C@]21C.CC(C)c1ccc2c(c1)CC[C@H]1[C@](C)(CN)CCC[C@]21C.O=C(O)c1nc[nH]c1C(=O)O` [listing 2 of 2 here], for which the Activity result in the series with MCF7 [15] and in the series with MCF7 [16] was “Dose-dependent effect” each time. In addition, the result in the series with Salmon testes DNA [17] and in the series on Salmon testes DNA [4] was Active.
Consider `CC(C)c1ccc2c(c1)CC[C@H]1[C@](C)(CNC(=O)c3cncn3C)CCC[C@]21C`, for which the half-maximal inhibitory concentration (IC50) with HeLa came to 20.9 µM; in the series with HepG2 it was 12 µM; in the series on MCF7 [1], 2.17 µM; in the series with A549 [2] it was 53.2 µM; in the series with HUVEC [3], 57.8 µM. Also, the outcome in the series with Salmon testes DNA [4] was Active.

These data come from ChEMBL document CHEMBL4480368, “Synthesis and potential antineoplastic activity of dehydroabietylamine imidazole derivatives” (Medchemcomm, 2018).
